Source: US5691338A, “1,2-dithiole-3 thiones for the treatment of reverse transcriptase-dependent viral infections” (priority 1995, dated 1997)
Where two headings read alike, the source gives them in different places.

What was measured:
[1] = system: HTLV-I reverse transcriptase; settings: MT-2 (HTLV-I-infected) cells, FIG. 7
Procedure: MT-2 is a lymphocytic cell-line that is transformed by, and is antigen positive for HTLV-I. HTLV-I can be detected in supernatants of MT-2 cultures by monitoring reverse transcriptase activity. Using the MT-2 system compounds that are inhibitors of HTLV-I reverse transciptase can be identified. MT-2 cells are washed and incubated in triplicate with various concentrations of the test compounds, positive drug controls, negative drug controls or media alone. A cell-line that is negative for HTLV-I, such as H9, is used as a negative reverse transcriptase control. After 72 hours of incubation, culture supernatants are harvested and tested for reverse transcriptase activity as described (25). Inhibition of reverse transcriptase activity is calculated by comparing the radioactive counts in the experimental compounds to the MT-2 non-drug controls. ED50's can be calculated for each compound.

[2] = system: quinone reductase (QR) in H9 cells; assay: Elevation of quinone reductase (QR) in H9 cells; format: cell-based, human; settings: for fold induction at 30 µM / fold induction at 60 µM / fold induction at 120 µM: Homo sapiens, read-out: Quinone reductase, treated to control value
Procedure: Five ml of medium was added to T-25 flasks and DMSO containing tests compounds were added to a final concentration of 0.1%. Control medium contained 0.1% DMSO. After the drugs were added, 5×10^6 cells in 5 ml of medium was added to each T-25 flask. The cells were grown at 37° C. in a humidified incubator supplemented with 5% CO2 until harvested (N=3 flasks/group). At the indicated times, cells were isolated by centrifugation (500×g×10 min) and were washed three times by adding 10 ml of ice-cold DPBS, mixing, and centrifuging in a refrigerated centrifuge (500×g×10 min) to isolate the cell pellets. The cells were then lysed by the addition of 400 μl of ice-cold DPBS containing 0.5% Triton X-100 and vortexing. Supernatants were then isolated by centrifuging the lysates (5000×g×20 min). Samples were kept on ice or refrigerated until the reagents for QR or GSH spectrophotometric assays were added to the aliquoted microtiter plates. QR levels were determined by aliquoting 10 μl/well of supernatant in a 96-well plate and measuring the activity by the assay described by Prochaska and Santamaria (20) except that the final NADP^+ concentration was 200 μM (21). Samples were assayed in quadruplicate, and dicoumarol inhibitable-rates (which generally represented less than 5% of the total rate) were also measured. Spectrophotometric blanks contained 10 μl of DPBS with 0.5% Triton X-100. For the GSH assay, 300 μl of sample was placed in a centricon-10microconcentrator and centrifuged (5000×g×45 min) until enough ultrafiltrate could be collected. 50 μl/well of sample in quadruplicate was placed in a 96 well "half-area" plate after which 20 μl of 1 mM Ellman's reagent dissolved in DPBS was added. The yellow color (22) developed within 5 min and was scanned with a uvmax microtiter scanner (Palo Alto, Calif.) at 405 nm. Spectrophotometric blanks contained 50 μl DPBS with 0.5% Triton X-100 and 20 μl of 1 mM Ellman's reagent in DPBS. The optical densities of the specimens were calibrated to a GSH standard curve. Protein contents were determined in 3 ml cuvettes by the Bradford method (23). The protein content in the ultrafiltrates employed for GSH determinations were negligible (<0.01 mg/ml).
We confirmed that the induction of QR in microtiter wells mirrored our results in T-25 flasks by using the method of Prochaska and Santamaria (20). Medium (100 μl) containing 0.1% final concentration DMSO was added to all wells except columns designated to contain the highest concentration of drug or spectrophotometric blanks in duplicate sets of U-bottomed microtiter plates. 200 μl of media containing drug (final DMSO concentration=0.1%) was added to the empty column of wells and then diluted in 2-fold serial dilutions across. After the serial dilutions were performed, 100 μl of media containing 1×10^6 cells/ml was added to each well, and the plates were placed in a 37° C. incubator for 48 h. One set of plates was assayed as described (21) for QR activity, the other was assayed for cell number by the method for Alley et al. (24).

For `Cc1c(-c2cnccn2)ssc1=S` [compound 11, 4-methyl-5-(2-pyrazinyl)-1,2-dithiole-3-thione], the “effect on levels of RT activity in media” value [1] was “dose-dependent effect”, the “Quinone Reductase Specific Activity” value ([2]; 24 h, 30 μM) was 62.0 ± 2.0 nmol/min/mg and the “Quinone Reductase Specific Activity” value ([2]; 24 h, 60 μM) was 83.5 ± 1.7 nmol/min/mg. For the same compound, the “Quinone Reductase Specific Activity” value ([2]; 24 h, 120 μM) was 109 ± 28 nmol/min/mg, the “Quinone Reductase Specific Activity” value ([2]; 48 h, 30 μM) was 52.7 ± 2.9 nmol/min/mg and the “Quinone Reductase Specific Activity” value ([2]; 48 h, 60 μM) was 68.0 ± 2.9 nmol/min/mg. For the same compound, the “Quinone Reductase Specific Activity” value ([2]; 48 h, 120 μM) was 79.7 ± 0.28 nmol/min/mg, the “Quinone Reductase Specific Activity” value ([2]; 72 h, 30 μM) was 40.4 ± 4.7 nmol/min/mg and the “Quinone Reductase Specific Activity” value ([2]; 72 h, 60 μM) was 47.3 ± 4.6 nmol/min/mg. The “Quinone Reductase Specific Activity” value ([2]; 72 h, 120 μM) was 75.0 ± 8.6 nmol/min/mg, the fold induction at 30 µM ([2]; H9, 24 h) was 1.1 and the fold induction at 60 µM ([2]; H9, 24 h) was 1.48. It also gave a fold induction at 120 µM ([2]; H9, 24 h) of 1.93, a fold induction at 30 µM ([2]; H9, 48 h) of 1.52 and a fold induction at 60 µM ([2]; H9, 48 h) of 1.96. It also gave a fold induction at 120 µM ([2]; H9, 48 h) of 2.28, a fold induction at 30 µM ([2]; H9, 72 h) of 0.86 and a fold induction at 60 µM ([2]; H9, 72 h) of 1.01. For the same compound, the fold induction at 120 µM ([2]; H9, 72 h) was 1.6 and the “elevation of QR” value ([2]; dose- and time-dependent, H9 cells) was “least effective inducer of QR and GSH”.
